Laboratory results from paper PMC11003491 (Journal of Enzyme Inhibition and Medicinal Chemistry, 2023).

Experiments:
[1] = tested on: A549 small lung cancer cell line; assay: MTT cell viability assay, A549; format: cell-based; conditions: Homo sapiens, A549, 48 h, read-out: A549 IC50, MTT, 48 h, mean of six values
[2] = molecular target: EGFR-WT (Homo sapiens, UniProt P00533); assay: biochemical; conditions: EGFR WT IC50, five concentrations
[3] = molecular target: HER-2 (Homo sapiens, UniProt P04626); assay: HER-2 Kinase Assay Kit; format: biochemical
Chain of HER-2 (P04626 23-1255): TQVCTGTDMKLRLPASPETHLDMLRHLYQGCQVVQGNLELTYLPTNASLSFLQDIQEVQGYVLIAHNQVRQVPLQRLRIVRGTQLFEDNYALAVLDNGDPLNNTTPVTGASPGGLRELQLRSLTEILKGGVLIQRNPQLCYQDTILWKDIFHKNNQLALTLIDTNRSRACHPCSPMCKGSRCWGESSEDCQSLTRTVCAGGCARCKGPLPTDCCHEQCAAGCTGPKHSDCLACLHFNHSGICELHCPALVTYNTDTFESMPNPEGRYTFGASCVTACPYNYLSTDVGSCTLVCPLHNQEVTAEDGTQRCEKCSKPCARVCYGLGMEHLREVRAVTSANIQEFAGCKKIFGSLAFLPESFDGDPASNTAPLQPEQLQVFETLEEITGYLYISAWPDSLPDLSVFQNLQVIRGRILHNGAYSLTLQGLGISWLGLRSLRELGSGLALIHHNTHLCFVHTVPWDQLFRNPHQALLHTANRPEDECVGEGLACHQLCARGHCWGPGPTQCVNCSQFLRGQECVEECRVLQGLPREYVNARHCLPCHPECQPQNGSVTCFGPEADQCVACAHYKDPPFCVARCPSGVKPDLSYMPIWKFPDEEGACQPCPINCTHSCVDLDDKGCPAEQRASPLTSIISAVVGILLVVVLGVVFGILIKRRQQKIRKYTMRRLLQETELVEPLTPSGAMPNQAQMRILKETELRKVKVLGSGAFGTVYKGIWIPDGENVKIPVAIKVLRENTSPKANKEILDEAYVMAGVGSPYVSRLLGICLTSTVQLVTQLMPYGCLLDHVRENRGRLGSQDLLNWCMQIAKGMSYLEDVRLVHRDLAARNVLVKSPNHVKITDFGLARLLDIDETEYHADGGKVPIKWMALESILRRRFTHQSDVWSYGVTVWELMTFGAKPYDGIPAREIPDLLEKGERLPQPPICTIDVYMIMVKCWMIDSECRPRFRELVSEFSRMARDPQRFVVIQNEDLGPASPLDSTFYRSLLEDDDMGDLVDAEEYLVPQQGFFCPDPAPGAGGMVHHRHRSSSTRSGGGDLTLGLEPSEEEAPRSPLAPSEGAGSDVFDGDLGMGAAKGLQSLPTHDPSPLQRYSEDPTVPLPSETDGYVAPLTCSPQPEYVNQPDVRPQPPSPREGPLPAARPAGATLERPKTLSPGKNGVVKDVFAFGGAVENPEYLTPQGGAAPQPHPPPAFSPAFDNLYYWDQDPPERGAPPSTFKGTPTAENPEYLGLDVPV

[4] = tested on: MCF-7; conditions: read-out: cytotoxicity against MCF-7 IC50; cited from earlier work
[5] = tested on: MCF7 breast cells; assay: Apoptosis by Annexin-V-FITC/PI flow cytometry; format: cell-based, human; conditions: MCF7, compound at IC50, 24 h
[6] = tested on: breast MCF7 cells; assay: Cell cycle analysis by flow cytometry; format: cell-based, human; conditions: MCF7, compound at IC50 concentration, 24 h

Chain of EGFR-WT (P00533 25-1210): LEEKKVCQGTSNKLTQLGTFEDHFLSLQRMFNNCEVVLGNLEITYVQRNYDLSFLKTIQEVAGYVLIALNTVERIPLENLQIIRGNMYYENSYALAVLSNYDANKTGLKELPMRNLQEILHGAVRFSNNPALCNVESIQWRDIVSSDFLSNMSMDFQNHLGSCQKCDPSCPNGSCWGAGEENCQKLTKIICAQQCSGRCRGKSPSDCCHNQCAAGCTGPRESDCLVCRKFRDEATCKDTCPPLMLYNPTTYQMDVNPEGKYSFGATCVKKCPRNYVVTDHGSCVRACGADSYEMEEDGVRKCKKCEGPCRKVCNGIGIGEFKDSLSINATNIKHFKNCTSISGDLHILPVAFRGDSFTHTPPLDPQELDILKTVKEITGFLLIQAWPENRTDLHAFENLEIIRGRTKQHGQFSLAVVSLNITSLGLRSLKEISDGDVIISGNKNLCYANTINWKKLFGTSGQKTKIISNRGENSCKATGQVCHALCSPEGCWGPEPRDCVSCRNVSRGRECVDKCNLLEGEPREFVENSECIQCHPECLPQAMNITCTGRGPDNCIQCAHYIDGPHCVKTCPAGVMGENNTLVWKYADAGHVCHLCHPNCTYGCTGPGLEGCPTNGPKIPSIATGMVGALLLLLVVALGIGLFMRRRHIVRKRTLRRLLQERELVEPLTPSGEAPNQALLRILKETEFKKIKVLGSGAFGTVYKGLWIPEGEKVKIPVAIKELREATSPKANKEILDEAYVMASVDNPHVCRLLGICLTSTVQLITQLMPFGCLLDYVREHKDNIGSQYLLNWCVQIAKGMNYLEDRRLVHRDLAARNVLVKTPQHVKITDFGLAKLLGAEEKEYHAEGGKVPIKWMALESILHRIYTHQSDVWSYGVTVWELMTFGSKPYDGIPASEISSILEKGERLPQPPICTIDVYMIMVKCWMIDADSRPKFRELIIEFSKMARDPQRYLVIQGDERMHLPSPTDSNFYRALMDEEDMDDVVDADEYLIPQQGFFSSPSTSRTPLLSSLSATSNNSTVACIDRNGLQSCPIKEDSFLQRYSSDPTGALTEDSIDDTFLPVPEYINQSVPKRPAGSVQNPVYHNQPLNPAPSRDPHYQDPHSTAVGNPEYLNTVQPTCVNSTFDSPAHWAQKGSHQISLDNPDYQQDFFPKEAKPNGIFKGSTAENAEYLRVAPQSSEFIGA

Structure (SMILES) | IC50 [1] [nM] | IC50 [2] [nM] | IC50 [3] [nM] | IC50 [4] [nM] | Apoptosis Early [5] [%] | Apoptosis Late [5] [%] | Necrosis [5] [%] | %G0–G1 [6] [%] | %G2-M [6] [%]
CC(C)Cc1ccc(-c2nn(-c3ccc(S(C)(=O)=O)cc3)cc2/C=N/N=c2\[nH]c(-c3ccc([N+](=O)[O-])cc3)cs2)cc1 [Compound 18f, (E)-2-((E)-((3–(4-isobutylphenyl)-1–(4-(methylsulfonyl)phenyl)-1H-pyrazol-4-yl)methylene)hydrazono)-4–(4-nitrophenyl)-2,3-dihydrothiazole] | 1640 to 14300 | 190 | 201 | – | – | – | – | – | –
COc1ccc(-c2nn(-c3ccc(S(C)(=O)=O)cc3)cc2/C=N/N=c2\[nH]c(-c3ccc(Br)cc3)cs2)cc1 [Compound 18c, (E)-4–(4-bromophenyl)-2-((E)-((3–(4-methoxyphenyl)-1–(4-(methylsulfonyl)phenyl)-1H-pyrazol-4-yl)methylene)hydrazono)-2,3-dihydrothiazole] | – | 226 | 144 | – | – | – | – | – | –
C#Cc1cccc(Nc2ncnc3cc(OCCOC)c(OCCOC)cc23)c1 [erlotinib] | – | – | – | 20 | – | – | – | – | –
COc1ccc(-c2nn(-c3ccc(S(C)(=O)=O)cc3)cc2C=N/N=c2\[nH]c(-c3ccc([N+](=O)[O-])cc3)cs2)cc1 [Compound 18d, (E and Z)-2-((E)-((3–(4-methoxyphenyl)-1–(4-(methylsulfonyl)phenyl)-1H-pyrazol-4-yl)methylene)hydrazono)-4–(4-nitrophenyl)-2,3-dihydrothiazole] | – | 388 | 195 | – | 12.58 | 27.45 | 6.52 | 62.43 | 4.39
